21 compounds from PubChem BioAssay (NCI) can be followed below.

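Interpolation was linear, between the two tested concentrations surrounding the appropriate level; five concentrations were tested over 48 hours in 96-well plates. The concentration for 50% growth inhibition is given as GI50. TGI: total growth inhibition.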

Some test systems named below: MDA-MB-435; NCI/ADR-RES ovarian; PC-3 prostate; T-47D breast; MDA-MB-231 breast.
Common to all, as to assay: inhibition of tumour cell growth, NCI panel, 48 h

`O=C(N[C@@H](C[Se][Se]C[C@H](NC(=O)c1ccc(Br)cc1F)C(=O)O)C(=O)O)c1ccc(Br)cc1F`: the GI50 with MDA-MB-435, in the experiment with NCI/ADR-RES ovarian, in the experiment with PC-3 prostate, in the experiment with T-47D breast and in the experiment with MDA-MB-231 breast was above 100 µM in each case. Further, the TGI in the experiment on MDA-MB-435, in the experiment with NCI/ADR-RES ovarian, in the experiment with PC-3 prostate, with T-47D breast and in the experiment on MDA-MB-231 breast was above 100 µM in each case.

Take `O=c1oc2ccc(I)cc2c(=O)n1-c1ccc(Cl)cc1F`: the GI50 with MDA-MB-435 was 1.9 µM; in the experiment with NCI/ADR-RES ovarian, 1.87 µM; in the experiment on PC-3 prostate, 2 µM; with T-47D breast it was 1.26 µM; in the experiment on MDA-MB-231 breast, 1.27 µM. Also, the TGI in the experiment on MDA-MB-435 amounted to 10.3 µM; with NCI/ADR-RES ovarian, 21.7 µM; in the experiment on PC-3 prostate it was 7.11 µM; in the experiment on T-47D breast, 6.44 µM; with MDA-MB-231 breast, 5.71 µM.

As to `CN1/C(=C\C=C\C2=[N+](C)c3ccccc3C2(C)C)C(C)(C)c2ccccc21`, the GI50 is 0.0739 µM with MDA-MB-435; 1.29 µM in the experiment on NCI/ADR-RES ovarian; 0.0455 µM with PC-3 prostate; 0.0179 µM in the experiment on T-47D breast; 0.248 µM with MDA-MB-231 breast. For the same compound, the TGI in the experiment with MDA-MB-435 was 0.936 µM; with NCI/ADR-RES ovarian, 4.97 µM; with PC-3 prostate, 5.97 µM; with T-47D breast, 1.27 µM; in the experiment with MDA-MB-231 breast, 1.58 µM.

`Cn1cc(C2=C(c3cn(C4CCN(Cc5ccccn5)CC4)c4ccccc34)C(=O)NC2=O)c2ccccc21`: the GI50 in the experiment on MDA-MB-435 was 2.87 µM; in the experiment with NCI/ADR-RES ovarian it was 4.34 µM; in the experiment with PC-3 prostate it was 3.97 µM; in the experiment with T-47D breast, 5.45 µM; in the experiment on MDA-MB-231 breast, above 100 µM. For the same compound, the TGI with MDA-MB-435, in the experiment on NCI/ADR-RES ovarian, in the experiment on PC-3 prostate, with T-47D breast and with MDA-MB-231 breast was above 100 µM each time.

Regarding `COc1cc(NCCCCCCCNC(C)C)c2nccc(C)c2c1`, the GI50 in the experiment with MDA-MB-435 was 6.95 µM; with NCI/ADR-RES ovarian, 14.3 µM; with PC-3 prostate it was 10.5 µM; in the experiment on T-47D breast, 5.44 µM; in the experiment on MDA-MB-231 breast, 9.45 µM. Also, the TGI was determined as 21.2 µM in the experiment on MDA-MB-435; 28.4 µM with NCI/ADR-RES ovarian; 23.9 µM with PC-3 prostate; 19.8 µM in the experiment with T-47D breast; 22.4 µM in the experiment on MDA-MB-231 breast.

Turning to `CC(=O)OC(Cn1cncn1)(Cn1cncn1)c1ccc(Cl)cc1Cl`, the TGI with MDA-MB-435, in the experiment with NCI/ADR-RES ovarian, in the experiment on PC-3 prostate, with T-47D breast and in the experiment on MDA-MB-231 breast was above 100 µM each time.

With `COC(=O)C1(C)Cc2cc(OC(C)=O)c(OC(C)=O)cc2N1` (centres undefined), the GI50 in the experiment on MDA-MB-435 is 6.29 µM; in the experiment on NCI/ADR-RES ovarian, 16 µM; in the experiment on PC-3 prostate it was 9.64 µM; in the experiment with T-47D breast it was 4.55 µM; with MDA-MB-231 breast, 17.8 µM. Moreover, the TGI in the experiment on MDA-MB-435 was 61.5 µM; with NCI/ADR-RES ovarian, above 75.5 µM; in the experiment on PC-3 prostate, above 72.6 µM; in the experiment on T-47D breast, above 37.8 µM; with MDA-MB-231 breast, 56.5 µM.

Consider `CC1(C)CC2C(=O)c3ccccc3NC2c2ccccc21` (centres undefined), for which the TGI with NCI/ADR-RES ovarian, in the experiment with PC-3 prostate and in the experiment with T-47D breast was above 100 µM each time.

Consider `CN(C)C(=O)O[C@H]1CN[C@H](C#Cc2cc3ncnc(Nc4ccc(OCc5cccc(F)c5)c(Cl)c4)c3s2)C1`, for which the GI50 is above 25 µM with MDA-MB-435; 9.82 µM in the experiment on NCI/ADR-RES ovarian; 5.44 µM in the experiment on PC-3 prostate; 2.98 µM with T-47D breast; 4.14 µM with MDA-MB-231 breast. Besides, the TGI with MDA-MB-435 is above 25 µM; in the experiment with NCI/ADR-RES ovarian it was above 25 µM; with PC-3 prostate, above 25 µM; in the experiment with T-47D breast it was above 25 µM; in the experiment with MDA-MB-231 breast, 11.6 µM.

In the case of `C=C1C(=O)O[C@H]2[C@H]1CC/C(COC(=O)NCC(C)c1ccc(CC(C)C)cc1)=C\CC[C@@]1(C)O[C@@H]21` (some centres undefined), the GI50 in the experiment with MDA-MB-435 was 1.24 µM; in the experiment on NCI/ADR-RES ovarian it was 3.54 µM; with PC-3 prostate, 0.691 µM; with T-47D breast, 2.2 µM; in the experiment on MDA-MB-231 breast it was 0.612 µM. For the same compound, the TGI in the experiment on MDA-MB-435 is 4.86 µM; in the experiment with NCI/ADR-RES ovarian, 10.1 µM; with PC-3 prostate it was 1.76 µM; with T-47D breast, 7.83 µM; in the experiment with MDA-MB-231 breast it was 1.27 µM.

On to `CC(C)(C)OC(=O)NCCCCCCCn1c2c(c3ccccc3c1=O)C(=O)c1ccccc1-2`, for which the GI50 in the experiment with MDA-MB-435 was 82 µM; in the experiment on NCI/ADR-RES ovarian, 26.1 µM; with PC-3 prostate, 25.4 µM; with T-47D breast, 16.4 µM; in the experiment with MDA-MB-231 breast it was 29.5 µM. Also, the TGI with MDA-MB-435 is above 100 µM; in the experiment with NCI/ADR-RES ovarian, above 100 µM; with PC-3 prostate, above 100 µM; with T-47D breast, 78.1 µM; with MDA-MB-231 breast, above 100 µM.

With `O=C1CCCCN1CCCCC#Cc1cccc(C#Cc2cccnc2)c1`, the GI50 in the experiment on MDA-MB-435 is 28.9 µM; in the experiment on NCI/ADR-RES ovarian, 17.5 µM; with PC-3 prostate, 11.6 µM; in the experiment with T-47D breast, 5.66 µM; in the experiment with MDA-MB-231 breast it was 12 µM. Further, the TGI in the experiment with MDA-MB-435 was above 100 µM; in the experiment on NCI/ADR-RES ovarian, 85.4 µM; in the experiment with PC-3 prostate, above 100 µM; with T-47D breast it was 26 µM; with MDA-MB-231 breast it was 27.7 µM.

`Cc1ccc(NC(=O)c2cc(S(=O)(=O)N3C(=O)NC(=O)NS3(=O)=O)c(S)cc2Cl)cc1`: the GI50 in the experiment with MDA-MB-435 is 17.1 µM; with NCI/ADR-RES ovarian it was above 100 µM; with PC-3 prostate, 32.3 µM; in the experiment with T-47D breast it was 21.4 µM; in the experiment with MDA-MB-231 breast it was 20.4 µM. The TGI is 35.7 µM in the experiment with MDA-MB-435; above 100 µM with NCI/ADR-RES ovarian; above 100 µM in the experiment with PC-3 prostate; 81.3 µM with T-47D breast; 57.9 µM in the experiment on MDA-MB-231 breast.

For the compound `CCCCCCCCCCCCCCCC[N+]1(C)CCOCC1`, the GI50 was 18.1 µM in the experiment with NCI/ADR-RES ovarian, 0.655 µM with PC-3 prostate, 4.68 µM with T-47D breast and 1.39 µM in the experiment with MDA-MB-231 breast. The TGI in the experiment with NCI/ADR-RES ovarian came to 44.9 µM; in the experiment on PC-3 prostate, 2.43 µM; with T-47D breast it was 25.2 µM; in the experiment on MDA-MB-231 breast, 3.94 µM.

For `Cc1ccc(-c2nc3nc(-c4ccc(F)cc4)nc(N4CCCNCC4)c3o2)cc1`, the GI50 in the experiment with MDA-MB-435 is 1.71 µM; in the experiment on NCI/ADR-RES ovarian it was 1.91 µM; with PC-3 prostate it was 1.56 µM; with MDA-MB-231 breast, 1.63 µM. For the same compound, the TGI in the experiment with MDA-MB-435 came out at 3.13 µM; in the experiment with NCI/ADR-RES ovarian, 3.63 µM; with PC-3 prostate, 3.18 µM; with MDA-MB-231 breast, 3.11 µM.

Consider `C=C1C[C@@H]2CC[C@@]34C[C@H]5O[C@H]6[C@@H](O3)[C@H]3O[C@H](CC[C@@H]3O[C@H]6[C@@H]5O4)CC(=O)C[C@@H]3[C@@H](OC)[C@@H](C[C@H](O)CN)O[C@H]3C[C@H]3O[C@@H](CC[C@@H]1O2)C[C@@H](C)C3=C`, for which the GI50 in the experiment with MDA-MB-435 was below 0.01 µM; in the experiment on NCI/ADR-RES ovarian, 2.69 µM; with PC-3 prostate, below 0.01 µM; with MDA-MB-231 breast it was below 0.01 µM. In addition, the TGI was below 0.01 µM in the experiment on MDA-MB-435, above 100 µM in the experiment with NCI/ADR-RES ovarian and above 53.5 µM in the experiment with MDA-MB-231 breast.

Regarding `COc1ccc2c(c1)/C(=C/c1cc(OC)c(OC)c(OC)c1)C(=O)N2`, the GI50 with MDA-MB-435 is 0.0318 µM; in the experiment with NCI/ADR-RES ovarian it was 0.142 µM; in the experiment with PC-3 prostate, 0.364 µM; in the experiment with T-47D breast it was 0.385 µM; in the experiment on MDA-MB-231 breast, 1.51 µM. Moreover, the TGI with MDA-MB-435 is 0.253 µM; in the experiment on NCI/ADR-RES ovarian, 1.74 µM; in the experiment with PC-3 prostate it was above 100 µM; in the experiment on MDA-MB-231 breast it was 66.8 µM.

Take `O=C1OCC2=C1C(c1ccccc1)c1cc3c(cc1N2CCO)OCO3` (centres undefined): the GI50 in the experiment on MDA-MB-435 is 0.563 µM; with NCI/ADR-RES ovarian, 2.08 µM; in the experiment on PC-3 prostate it was 4.66 µM; with T-47D breast it was 3.12 µM; in the experiment on MDA-MB-231 breast it was 24.8 µM. Further, the TGI in the experiment with MDA-MB-435 was 3.25 µM; with NCI/ADR-RES ovarian, 17.8 µM; in the experiment on PC-3 prostate, above 50 µM; in the experiment on T-47D breast, above 50 µM; in the experiment on MDA-MB-231 breast, above 50 µM.

`COc1ccc(C(=O)c2ccc([As]=O)cc2)cc1` (centres undefined): the GI50 with MDA-MB-435 was 0.121 µM; in the experiment on PC-3 prostate, 0.056 µM; in the experiment on T-47D breast it was 0.0288 µM; in the experiment with MDA-MB-231 breast, 0.087 µM. For the same compound, the TGI with MDA-MB-435 worked out at 0.254 µM; in the experiment with PC-3 prostate, 0.185 µM; in the experiment on T-47D breast, 0.204 µM; with MDA-MB-231 breast, 0.242 µM.

In the case of `O=C(O)[C@@H](Cc1ccc2ccccc2c1)NC(=O)n1c2ccccc2c2ccccc21`, the GI50 in the experiment with MDA-MB-435 is 1.09 µM; in the experiment with NCI/ADR-RES ovarian, 2.83 µM; with PC-3 prostate it was 1.87 µM; with T-47D breast it was 11.6 µM; in the experiment on MDA-MB-231 breast, 3.65 µM. The TGI with MDA-MB-435 is 3.39 µM; with NCI/ADR-RES ovarian, 9.65 µM; in the experiment on PC-3 prostate, 15.8 µM; in the experiment on T-47D breast, above 100 µM; in the experiment with MDA-MB-231 breast it was 17.3 µM.

As for `COc1cnc2c(c1)C(=O)c1c-2n(CCCN2CCN(C)CC2)c(=O)c2cc([N+](=O)[O-])ccc12`, the GI50 in the experiment with MDA-MB-435 was 0.166 µM; with NCI/ADR-RES ovarian it was 0.323 µM; in the experiment with T-47D breast, 1.77 µM. Further, the results for the TGI in the experiment on MDA-MB-435, in the experiment with NCI/ADR-RES ovarian and in the experiment on T-47D breast were 0.334 µM, 5.82 µM and 4.01 µM, respectively.
